Format in all cases: biochemical
The target of test [1] is T1, JAK2 (Homo sapiens, UniProt O60674).
T1 construct: made in house; host or cells: SF9 insect cells (baculovirus)
Kind of test: JAK2 inhibition (Table 4). As to conditions: read-out: JAK2 Ki.

In test [2] the target is T2, JAK3 (Homo sapiens, UniProt P52333).
T2 construct: made in house; host or cells: SF9 insect cells (baculovirus)
The test is described as follows: JAK3 inhibition (Table 4). As to conditions: read-out: JAK3 Ki.

The target of test [3] is T3, TYK2 (Homo sapiens, UniProt P29597).
T3 construct: made in house; host or cells: SF9 insect cells (baculovirus)
T3 sequence (P29597 873-1187): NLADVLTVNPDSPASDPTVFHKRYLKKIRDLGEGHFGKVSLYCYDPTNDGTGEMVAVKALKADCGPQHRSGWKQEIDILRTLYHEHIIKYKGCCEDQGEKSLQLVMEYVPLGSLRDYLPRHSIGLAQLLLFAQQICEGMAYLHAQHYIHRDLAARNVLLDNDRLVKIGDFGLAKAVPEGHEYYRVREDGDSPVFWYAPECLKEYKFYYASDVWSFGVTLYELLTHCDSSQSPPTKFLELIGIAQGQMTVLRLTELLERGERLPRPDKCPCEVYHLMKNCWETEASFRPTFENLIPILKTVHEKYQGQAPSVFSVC
Kind of test: TYK2 inhibition (Table 4).

T1 sequence (O60674 812-1132): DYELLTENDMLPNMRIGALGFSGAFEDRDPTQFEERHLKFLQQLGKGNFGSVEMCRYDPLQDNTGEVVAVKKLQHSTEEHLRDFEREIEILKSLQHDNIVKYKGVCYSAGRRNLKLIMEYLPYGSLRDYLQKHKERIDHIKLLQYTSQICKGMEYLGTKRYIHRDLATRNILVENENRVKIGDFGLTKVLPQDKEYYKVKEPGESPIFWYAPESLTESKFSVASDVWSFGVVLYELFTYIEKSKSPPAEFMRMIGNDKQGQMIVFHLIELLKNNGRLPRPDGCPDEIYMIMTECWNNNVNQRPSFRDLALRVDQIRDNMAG
T2 sequence (P52333 783-1124): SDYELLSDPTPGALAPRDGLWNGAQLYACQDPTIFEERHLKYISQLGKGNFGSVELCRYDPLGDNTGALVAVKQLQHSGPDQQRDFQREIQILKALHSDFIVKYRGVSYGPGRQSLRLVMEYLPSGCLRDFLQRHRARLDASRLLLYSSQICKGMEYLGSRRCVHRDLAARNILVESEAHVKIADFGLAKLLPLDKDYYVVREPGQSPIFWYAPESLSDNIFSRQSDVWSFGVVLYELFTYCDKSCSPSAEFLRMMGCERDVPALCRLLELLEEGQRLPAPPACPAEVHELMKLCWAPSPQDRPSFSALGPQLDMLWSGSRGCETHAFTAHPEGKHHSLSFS

As a reminder, the Ki is the dissociation constant of the complex between target and ligand, obtained from inhibition or displacement. On to `CC(C)(C)OC(=O)NC1CCC(n2cnc3cnc4[nH]ccc4c32)C1` (racemic) [Example 137, Racemic trans [3-(6H-1,2,3,5,6-Tetraaza-as-indacen-1-yl)-cyclopentyl]-carbamic acid tert-butyl ester], for which the inhibition constant Ki in test [1] was 9.51 nM; in test [2] it was 37.1 nM; in test [3] it was 120 nM.
For `CC(C)(C)OC(=O)NC1CCC(n2cnc3cnc4[nH]ccc4c32)C1` (racemic) [Example 138, Racemic cis[3-(6H-1,2,3,5,6-Tetraaza-as-indacen-1-yl)-cyclopentyl]-carbamic acid tert-butyl ester] the same measures were 27.7 nM, 143 nM and 222 nM.
As to `O=C(CC(F)(F)F)NC1CCC(n2nnc3cnc4[nH]ccc4c32)C1` (racemic) [Example 619, Racemic trans 3,3,3-trifluoro-N-[3-(6H-1,2,3,5,6-pentaaza-as-indacen-1-yl)-cyclopentyl]-propionamide], the Ki was determined as 14.6 nM in test [1], 31.1 nM in test [2] and 118 nM in test [3].
On the same counts, the results for `COC(=O)NC1CCC(n2cnc3cnc4[nH]ccc4c32)C1` (racemic) [Example 734, [3-(6H-1,3,5,6-Tetraaza-as-indacen-1-yl)-cyclopentyl]-carbamic acid methyl ester] are 8.06 nM, 54.3 nM and 28.5 nM.
On the same counts, the results for `CN1CCCCC1C(=O)N1CCC(n2cnc3cnc4[nH]ccc4c32)CC1` (single isomer, unassigned) [Example 196, (1-Methyl-piperidin-2-yl)-[4-(6H-1,2,3,5,6-tetraaza-as-indacen-1-yl)-piperidin-1-yl]-methanone] are 94.6 nM, 1980 nM and 295 nM.
As for `CN1CCCCC1C(=O)N1CCC(n2cnc3cnc4[nH]ccc4c32)CC1` (single isomer, unassigned) [Example 196a, (1-Methyl-piperidin-2-yl)-[4-(6H-1,2,3,5,6-tetraaza-as-indacen-1-yl)-piperidin-1-yl]-methanone], the Ki in test [1] was found to be 1340 nM.
In the case of `c1cc2c(ncc3ncn(C4CCNCC4)c32)[nH]1` [Example 28, 1-Piperidin-4-yl-1,6-dihydro-1,3,5,6-tetraaza-as-indacene], the Ki in test [2] was determined as 217 nM; in test [3], 80.1 nM.
For the molecule `N#CCC(=O)N1CCC(n2cnc3cnc4[nH]ccc4c32)CC1` [Example 33, 3-Oxo-3-[4-(6H-1,3,5,6-tetraaza-as-indacen-1-yl)-piperidin-1-yl]propionitrile], the Ki in test [1] stood at 35 nM; in test [2] it was 162 nM; in test [3] it was 143 nM.
On the same counts, the results for `O=C(c1ccccc1)N1CCC(n2cnc3cnc4[nH]ccc4c32)CC1` [Example 35, Phenyl-[4-(6H-1,3,5,6-tetraaza-as-indacen-1-yl)-piperidin-1-yl]methanone] are 26.1 nM, 692 nM and 165 nM.
For `CN(C)CC(=O)N1CCC(n2cnc3cnc4[nH]ccc4c32)CC1` [Example 36, 2-Dimethylamino-1-[4-(6H-1,3,5,6-tetraaza-as-indacen-1-yl)-piperidin-1-yl]ethanone] the same measures were 242 nM, 1620 nM and 1190 nM.
For `c1ncc(CN2CCC(n3cnc4cnc5[nH]ccc5c43)CC2)cn1` [Example 52, 1-(1-Pyrimidin-5-ylmethyl-piperidin-4-yl)-1,6-dihydro-1,3,5,6-tetraaza-as-indacene] the same measures were 3.15 nM, 4.14 nM and 56 nM.
For `CS(=O)(=O)N1CCC(n2cnc3cnc4[nH]ccc4c32)CC1` [Example 54, 1-(1-Methanesulfonyl-piperidin-4-yl)-1,6-dihydro-1,3,5,6-tetraaza-as-indacene], the figures for the Ki in test [1], in test [2] and in test [3] were 2.99 nM, 84.1 nM and 18.7 nM, respectively.
As for `O=S(=O)(c1ccccc1)N1CCC(n2cnc3cnc4[nH]ccc4c32)CC1` [Example 55, 1-(1-Benzenesulfonyl-piperidin-4-yl)-1,6-dihydro-1,3,5,6-tetraaza-as-indacene], the results for the Ki in test [1], in test [2] and in test [3] were 6.59 nM, 334 nM and 31 nM, respectively.
For `N#CCCN1CCC(n2cnc3cnc4[nH]ccc4c32)CC1` [Example 58, 3-[4-(6H-1,3,5,6-Tetraaza-as-indacen-1-yl)-piperidin-1-yl]propionitrile] the same measures were 1 nM, 16.4 nM and 3.57 nM.
On the same counts, the results for `CN1CCC[C@H]1C(=O)N1CCC(n2cnc3cnc4[nH]ccc4c32)CC1` [Example 78, ((S)-1-Methyl-pyrrolidin-2-yl)-[4-(6H-1,3,5,6-tetraaza-as-indacen-1-yl)-piperidin-1-yl]methanone] are 137 nM, 1120 nM and 436 nM.
On to `CC(C)CC(=O)N1CCC(n2cnc3cnc4[nH]ccc4c32)CC1` [Example 83, 3-Methyl-1-[4-(6H-1,3.5,6-tetraaza-as-indacen-1-yl)-piperidin-1-yl]-butan-1-one], for which the Ki was 51 nM in test [1], 1230 nM in test [2] and 187 nM in test [3].
Take `N[C@H]1CC[C@H](n2nnc3cnc4[nH]ccc4c32)CC1` [Example 279, 4-(6H-1,2,3,5,6-Pentaaza-as-indacen-1-yl)-cyclohexylamine]: the inhibition constant Ki in test [2] was 239 nM.
As for `N#CCCN[C@H]1CC[C@H](n2nnc3cnc4[nH]ccc4c32)CC1` [Example 280, 3-[4-(6H-1,2,3,5,6-Pentaaza-as-indacen-1-yl)-cyclohexylamino]-propionitrile], the Ki in test [2] amounted to 127 nM.
The same measure, in the same setting: the value for `C[C@@H](O)c1nc2cnc3[nH]ccc3c2n1[C@@H]1CCCN(CCC#N)C1` [Example 362, 3-{(R)-3-[2-((R)-1-Hydroxy-ethyl)-6H-1,3,5,6-tetraaza-as-indacen-1-yl]-piperidin-1-yl}-propionitrile] was 461 nM; that for `O[C@H]1CC[C@H](n2nnc3cnc4[nH]ccc4c32)CC1` [Example 546, trans 4-(6H-1,2,3,5,6-Pentaaza-as-indacen-1-yl)-cyclohexanol] was 140 nM.
On the same count and under the same terms, to `CO[C@H]1CC[C@H](n2c([C@@H](C)O)nc3cnc4[nH]ccc4c32)CC1` [Example 635, Trans (R)-1-[1-(4-methoxy-cyclohexyl)-1,6-dihydro-1,2,3,5,6-tetraaza-as-indacen-2-yl]-ethanol] belongs 371 nM.
For the molecule `C[C@@H](O)c1nc2cnc3[nH]ccc3c2n1[C@@H]1CCCN(CCC#N)C1` [Example 663, 3-{(R)-3-[2-((R)-1-Hydroxy-ethyl)-6H-1,2,3,5,6-tetraaza-as-indacen-1-yl]-piperidin-1-yl}-propionitrile], in test [2], the Ki came out at 188 nM.
In the case of `CCC(O)c1nc2cnc3[nH]ccc3c2n1C1CCCCC1` (stereo not drawn) [Example 876, 1-(1-Cyclohexyl-1,6-dihydro-1,3,5,6-tetraaza-as-indacen-2-yl)-propan-1-ol], the values for the Ki in test [2] and in test [3] were 35.7 nM and 15.3 nM, respectively.
For the molecule `C[C@@H](O)c1nc2cnc3[nH]ccc3c2n1C1CCC(CCC#N)CC1` (stereo partly drawn) [Example 1007, 3-{4-[2-((R)-1-Hydroxy-ethyl)-6H-1,3,5,6-tetraaza-as-indacen-1-yl]-cyclohexyl}-propionitrile], the Ki in test [2] was 18.5 nM.

The values are drawn from patent US8461328B2, “Tricyclic heterocyclic compounds, compositions and methods of use thereof” (Genentech, Inc., priority 2010, dated 2013).
